In ChEMBL document CHEMBL3596163, “Discovery of imidazo[1,5-a]pyridines and -pyrimidines as potent and selective RORc inverse agonists” (Bioorg Med Chem Lett, 2015):

Assays:
[1] = biological target: T1, Nuclear receptor ROR-gamma (Homo sapiens, UniProt P51449); assay: Inverse agonist activity at N-terminal 6xHis-tagged human RORc ligand binding domain (241 to 486) expressed in bacterial expression system assessed as inhibition of SRC1 co-activator peptide recruitment after 3 hrs by TR-FRET analysis; assay type: functional
T1 sequence (P51449 whole entry): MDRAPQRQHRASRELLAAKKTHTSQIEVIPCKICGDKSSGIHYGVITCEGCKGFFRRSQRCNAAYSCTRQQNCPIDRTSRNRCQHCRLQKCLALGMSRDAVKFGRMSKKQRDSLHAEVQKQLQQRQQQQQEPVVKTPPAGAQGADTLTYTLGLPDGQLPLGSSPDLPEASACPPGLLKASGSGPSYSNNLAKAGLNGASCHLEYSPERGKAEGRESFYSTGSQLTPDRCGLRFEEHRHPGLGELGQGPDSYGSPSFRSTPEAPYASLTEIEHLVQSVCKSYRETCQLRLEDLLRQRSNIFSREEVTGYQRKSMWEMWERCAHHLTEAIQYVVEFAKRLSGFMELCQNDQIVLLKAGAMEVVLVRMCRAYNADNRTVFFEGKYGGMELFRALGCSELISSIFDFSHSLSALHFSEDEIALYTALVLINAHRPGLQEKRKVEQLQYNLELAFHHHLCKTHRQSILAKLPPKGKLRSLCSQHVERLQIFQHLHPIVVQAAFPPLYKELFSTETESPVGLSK

[2] = Lipophilicity, log D of the compound at pH 7.4; assay type: physicochemical; settings: buffer
[3] = biological target: T2, Peroxisome proliferator-activated receptor gamma (Homo sapiens, UniProt P37231); assay: Displacement of fluormone PPARgamma green from GST-tagged human PPARgamma-LBD after 2 hrs by fluorescence polarization assay
T2 sequence (P37231 whole entry): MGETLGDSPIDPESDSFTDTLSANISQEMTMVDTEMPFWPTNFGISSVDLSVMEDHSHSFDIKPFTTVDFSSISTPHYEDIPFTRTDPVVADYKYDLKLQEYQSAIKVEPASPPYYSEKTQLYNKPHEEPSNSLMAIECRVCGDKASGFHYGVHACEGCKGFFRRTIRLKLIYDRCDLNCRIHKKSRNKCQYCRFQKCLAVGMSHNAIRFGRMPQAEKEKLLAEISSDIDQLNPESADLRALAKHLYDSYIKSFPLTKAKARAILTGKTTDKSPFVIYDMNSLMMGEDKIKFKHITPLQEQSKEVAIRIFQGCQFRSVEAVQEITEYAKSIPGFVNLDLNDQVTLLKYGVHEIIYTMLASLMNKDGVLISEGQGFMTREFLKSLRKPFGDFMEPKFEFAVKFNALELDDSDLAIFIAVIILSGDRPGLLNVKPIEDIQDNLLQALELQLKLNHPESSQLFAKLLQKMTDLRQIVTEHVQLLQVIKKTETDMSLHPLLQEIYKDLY

Structure (SMILES)	EC50 [1]	logD [2]	IC50 [3]
O=C(O)c1ccc(-n2nc(C(=O)c3c(Cl)cccc3C(F)(F)F)c3c2CCCC3)cc1	> 10000 nM	-0.3	–
O=C(O)c1ccc(-c2nc(C(=O)c3c(Cl)cccc3C(F)(F)F)n3ccncc23)cc1	2600 nM	0.7	–
O=C(O)c1ccc(-c2nn(C(=O)c3c(Cl)cccc3C(F)(F)F)c3ccccc23)cc1	–	2.9	–
COc1cccc(C(F)(F)F)c1C(=O)c1nc(-c2ccc(C(=O)O)cc2F)c2n1CCCC2	670 nM	–	9100 nM
O=C(c1c(Cl)cccc1C(F)(F)F)c1nc([C@H]2CC[C@H](C(=O)O)CC2)c2ccccn12	400 nM	1.3	–
O=C(c1c(Cl)cccc1C(F)(F)F)c1nc([C@H]2CC[C@@H](C(=O)O)CC2)c2ccccn12	4300 nM	1.8	–
O=C(c1c(Cl)cccc1C(F)(F)F)c1nc(N2CCC(C(=O)O)CC2)c2ccccn12	540 nM	0.4	> 10000 nM
O=C(c1c(Cl)cccc1C(F)(F)F)c1nc(C2=CCC(C(=O)O)CC2)c2ccccn12 (centres undefined)	100 nM	1.5	1800 nM
O=C(O)c1ccc(-c2cn3c(n2)C(c2c(Cl)cccc2C(F)(F)F)OCC3)cc1 (centres undefined)	> 10000 nM	–	–
N#Cc1cccc(C(F)(F)F)c1C(=O)c1nc(-c2ccc(C(=O)O)cc2F)c2n1CCCC2	220 nM	0.7	> 10000 nM
O=C(O)c1ccc(-c2nc(C(=O)c3c(Cl)cccc3Cl)n3c2CCCC3)c(F)c1	77 nM	1.5	1100 nM
O=C(c1c(Cl)cccc1C(F)(F)F)c1nc(N2CC[C@H](C(=O)O)[C@@H](O)C2)c2ccccn12 (stereo in doubt)	440 nM	0.3	> 10000 nM
O=C(O)c1ccc(-c2nc(C(=O)c3c(F)cccc3Cl)n3c2CCCC3)c(F)c1	190 nM	1.2	2900 nM
O=C(c1c(Cl)cccc1C(F)(F)F)c1nc(N2CCC(O)(C(=O)O)CC2)c2ccccn12	6800 nM	–	–
N#Cc1cccc(Cl)c1C(=O)c1nc(-c2ccc(C(=O)O)cc2F)c2n1CCCC2	250 nM	0.7	7700 nM
O=C(c1c(Cl)cccc1C(F)(F)F)c1nc(N2CC[C@@H](C(=O)O)[C@H](O)C2)c2ccccn12 (stereo in doubt)	97 nM	0.4	> 10000 nM
COc1cccc(Cl)c1C(=O)c1nc(-c2ccc(C(=O)O)cc2F)c2n1CCCC2	240 nM	0.8	5500 nM
O=C(O)c1ccc(-c2nc(C(=O)c3c(Cl)cccc3C(F)(F)F)n3c2CCCC3)cc1	58 nM	0.8	2100 nM
O=C(O)c1ccc(-c2nc(C(=O)c3c(Cl)cccc3C(F)(F)F)n3cccnc23)cc1	84 nM	0.3	4200 nM
O=C(O)c1ccc(-c2nc(C(=O)c3ccccc3C(F)(F)F)n3c2CCCC3)c(F)c1	840 nM	1.4	5600 nM
